Assay results published in patent US10123993B2, “Cyclic ureas as inhibitors of rock” (BRISTOL-MYERS SQUIBB COMPANY, priority 2015, dated 2018).
Counter-ions that a name gives are not always drawn.

Molecular target: ROCK2 (Homo sapiens, UniProt O75116)
Assay: ROCK2 kinase inhibition assay (Caliper LABCHIP, FITC peptide substrate)
Assay type: biochemical
Conditions: 5 μM ATP, 1.5 μM peptide substrate; value ranges
How it was run: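 Rho kinase with 5 μM ATP and 1.5 μM FITC-AHA-AKRRRLSSLRA-OH peptide in HEPES pH 7.5, 20 mM MgCl2, 0.015% Brij-35, 4 mM DTT, DMSO <2%. EDTA stop; phospho and non-phospho peptide separated on LabChip. IC50 from dose-response fit.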

ROCK2, sequence (O75116 whole entry, species assumed): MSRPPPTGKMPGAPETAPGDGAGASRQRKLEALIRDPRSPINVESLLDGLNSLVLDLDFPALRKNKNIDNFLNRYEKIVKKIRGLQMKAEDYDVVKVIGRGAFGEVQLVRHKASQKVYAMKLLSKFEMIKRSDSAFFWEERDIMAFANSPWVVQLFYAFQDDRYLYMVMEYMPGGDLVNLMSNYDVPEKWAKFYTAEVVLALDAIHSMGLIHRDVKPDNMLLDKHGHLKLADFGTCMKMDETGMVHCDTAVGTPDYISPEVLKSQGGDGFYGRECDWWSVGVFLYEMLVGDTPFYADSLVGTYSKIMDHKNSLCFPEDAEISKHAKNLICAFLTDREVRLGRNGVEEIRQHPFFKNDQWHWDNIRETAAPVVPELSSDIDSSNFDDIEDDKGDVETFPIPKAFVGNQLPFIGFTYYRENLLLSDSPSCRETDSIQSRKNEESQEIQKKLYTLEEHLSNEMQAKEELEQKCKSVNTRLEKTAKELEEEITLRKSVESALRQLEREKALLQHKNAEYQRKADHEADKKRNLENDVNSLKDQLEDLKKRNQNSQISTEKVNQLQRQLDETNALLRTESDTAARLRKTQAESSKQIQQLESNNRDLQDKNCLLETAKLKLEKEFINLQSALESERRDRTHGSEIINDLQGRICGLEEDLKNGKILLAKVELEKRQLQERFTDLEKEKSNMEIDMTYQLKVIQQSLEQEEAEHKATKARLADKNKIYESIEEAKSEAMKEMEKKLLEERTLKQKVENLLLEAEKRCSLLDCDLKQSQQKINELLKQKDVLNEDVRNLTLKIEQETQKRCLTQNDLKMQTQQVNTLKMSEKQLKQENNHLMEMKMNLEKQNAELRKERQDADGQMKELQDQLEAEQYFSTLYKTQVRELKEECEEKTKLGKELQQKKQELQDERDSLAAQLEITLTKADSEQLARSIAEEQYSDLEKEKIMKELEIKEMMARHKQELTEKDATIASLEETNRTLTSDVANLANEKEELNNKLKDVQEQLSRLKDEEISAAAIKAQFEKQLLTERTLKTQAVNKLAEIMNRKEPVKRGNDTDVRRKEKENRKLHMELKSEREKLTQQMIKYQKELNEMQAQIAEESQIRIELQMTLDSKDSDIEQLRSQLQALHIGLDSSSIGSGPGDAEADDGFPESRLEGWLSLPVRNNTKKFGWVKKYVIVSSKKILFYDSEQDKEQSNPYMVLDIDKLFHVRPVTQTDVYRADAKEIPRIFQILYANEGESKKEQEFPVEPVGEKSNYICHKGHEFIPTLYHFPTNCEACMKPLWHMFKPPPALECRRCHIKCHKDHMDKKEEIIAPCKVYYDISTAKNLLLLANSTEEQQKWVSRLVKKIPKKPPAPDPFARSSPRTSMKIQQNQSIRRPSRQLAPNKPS

IC50 [nM]	Compound
< 2	COc1cc(F)cc(CN2CCN(c3ccc(-c4cn[nH]c4)c(C)c3)C2=O)c1 [Example 274, 1-(3-fluoro-5-methoxybenzyl)-3-(3-methyl-4-(1H-pyrazol-4-yl)phenyl)imidazolidin-2-one]
20.1 to 200	COc1cc(N2CC(=O)N(Cc3c(F)cccc3F)C2=O)ccc1-c1cn[nH]c1 [Example 102, 3-(2,6-difluoro-benzyl)-1-(3-methoxy-4-(1H-pyrazol-4-yl)phenyl) imidazolidine-2,4-dione]
200 to 2000	COc1cccc(CN2C(=O)N(c3ccc(-c4cn[nH]c4)c(OC)c3)CC2CO)c1 (single isomer, unassigned) [Example 135, 4-(hydroxy-methyl)-1-(3-methoxy-4-(1H-pyrazol-4-yl)phenyl)-3-(3-methoxy-benzyl) imidazolidin-2-one]
200 to 2000	O=C1N(Cc2cccnc2)CCN1c1ccc(-c2cn[nH]c2)cn1 [Example 242, 1-(5-(1H-pyrazol-4-yl)pyridin-2-yl)-3-(pyridin-3-ylmethyl)imidazolidin-2-one]
2.1 to 20	COc1cc(CN2C(=O)N(c3ccc(-c4cn[nH]c4)cc3)C[C@@H]2CO)ccc1F (single isomer, unassigned) [Example 130]
20.1 to 200	COc1cccc(CN2CCN(c3ccc(-c4ccnc(N)c4)cc3)C2=O)c1 [Example 62, 1-(4-(2-Aminopyridin-4-yl)phenyl)-3-(3-methoxybenzyl)imidazolidin-2-one, TFA]
20.1 to 200	COc1cccc(C(C)N2C(=O)N(c3ccc(-c4cn[nH]c4)cc3)C[C@@H]2CO)c1 (single isomer, unassigned) [Example 133]
200 to 2000	COc1cccc(CN2C(=O)N(c3ccc(-c4cn[nH]c4)c(OC)c3)CC2CO)c1 (single isomer, unassigned) [Example 134, 4-(hydroxy-methyl)-1-(3-methoxy-4-(1H-pyrazol-4-yl)phenyl)-3-(3-methoxy-benzyl) imidazolidin-2-one]
2.1 to 20	CCNC(=O)C(c1cccc(OC)c1)N1CCN(c2ccc(-c3cn[nH]c3)cc2)C1=O (single isomer, unassigned) [Example 289, 2-(3-(4-(1H-Pyrazol-4-yl)phenyl)-2-oxoimidazolidin-1-yl)-N-ethyl-2-(3-methoxyphenyl)acetamide]
2.1 to 20	COc1cc(N2CC(CO)N(Cc3ccccc3)C2=O)ccc1-c1cn[nH]c1 (stereo not shown) [Example 41, 3-Benzyl-4-(hydroxymethyl)-1-(3-methoxy-4-(1H-pyrazol-4-yl)phenyl)imidazolidin-2-one]
2.1 to 20	COc1cc(CN2C(=O)N(c3ccc(-c4cn[nH]c4)cc3)CC2(C)C)ccc1F [Example 140, 1-(4-(1H-pyrazol-4-yl)phenyl)-3-(4-fluoro-3-methoxy-benzyl)-4,4-dimethyl-imidazolidin-2-one]
2.1 to 20	COc1cccc(C(C)n2ccn(-c3ccc(-c4ccnc(N)n4)cc3)c2=O)c1 (single isomer, unassigned) [Example 399, 1-(4-(2-aminopyrimidin-4-yl)phenyl)-3-(1-(3-methoxyphenyl)ethyl)-1H-imidazol-2(3H)-one]
20.1 to 200	O=c1n(Cc2cc(F)ccc2F)ccn1-c1ccc(-c2cn[nH]c2)cc1 [Example 408, 1-(4-(1H-pyrazol-4-yl)phenyl)-3-(2,5-difluorobenzyl)-1H-imidazol-2(3H)-one]
2.1 to 20	COc1cc(F)cc(CN2CCN(c3ccc(-c4cn[nH]c4)cn3)C2=O)c1 [Example 428, 1-(5-(1H-pyrazol-4-yl)pyridin-2-yl)-3-(3-fluoro-5-methoxybenzyl)imidazolidin-2-one]
2.1 to 20	COc1cccc(Cn2ccn(-c3ccc(-c4cn[nH]c4)c(C)n3)c2=O)c1 [Example 187, 1-(3-methoxy-benzyl)-3-(6-methyl-5-(1H-pyrazol-4-yl)pyridin-2-yl)-1H-imidazol-2(3H)-one]
2.1 to 20	CCc1cc(N2CC(C)(C)N(Cc3cccc(OC)c3)C2=O)ccc1-c1cn[nH]c1 [Example 148, 1-(3-ethyl-4-(1H-pyrazol-4-yl)phenyl)-3-(3-methoxy-benzyl)-4,4-dimethyl-imidazolidin-2-one]
